# From BindingDB's records for doi:10.1016/j.bmcl.2014.08.026 (Rhône-Poulenc Rorer, 2014)
# Experiment: Antagonist activity at CRTH2 receptor in human whole blood assessed as inhibition of PGD2-induced eosinophil shape change after 10 mins by fluorescence assay
smiles,measurement,value
Cc1c(Cc2ccccc2S(=O)(=O)c2ccccc2)c2c(n1CC(=O)O)CCNC2=O,IC50,8 nM
